row,SMILES,melting point
1,"CC(C)n1nc(-c2nc(Oc3ccc(F)cc3)c(N)nc2-c2ccccc2)ccc1=O [Example 158, 6-[5-amino-6-(4-fluorophenoxy)-3-phenyl-2-pyrazinyl]-2-isopropyl-3(2H)-pyridazinone]",173 to 175 °C
2,"CC(C)n1nc(-c2nc(NCc3ccccc3)c(N)nc2-c2ccccc2)ccc1=O [Example 96, 6-[5-amino-6-(benzylamino)-3-phenyl-2-pyrazinyl]-2-isopropyl-3(2H)-pyridazinone]",181 to 183.5 °C
3,"CC(C)n1nc(-c2nc(/C=C/c3ccccc3)c(N)nc2-c2ccccc2)ccc1=O [Example 87, 6-{5-amino-3-phenyl-6-[(E)-2-phenylvinyl]-2-pyrazinyl}-2-isopropyl-3(2H)-pyridazinone]",244.5 to 245 °C
4,"CC(C)n1nc(-c2nc(N3CCN(C)CC3)c(N)nc2-c2ccccc2)ccc1=O [Example 113, 6-[5-amino-6-(4-methyl-1-piperazinyl)-3-phenyl-2-pyrazinyl]-2-isopropyl-3(2H)-pyridazinone]",155 to 157 °C
5,"C=CCNc1nc(-c2ccc(=O)n(C(C)C)n2)c(-c2ccccc2)nc1N [Example 101, 6-[6-(allylamino)-5-amino-3-phenyl-2-pyrazinyl]-2-isopropyl-3(2H)-pyridazinone]",208 to 210 °C
6,"COc1ccc(CNc2nc(-c3ccccc3)c(-c3ccc(=O)n(C(C)C)n3)nc2C#N)cc1 [Example 47, 6-(1-isopropyl-6-oxo-1,6-dihydro-3-pyridazinyl)-3-[(4-methoxybenzyl)amino]-5-phenyl-2-pyrazinecarbonitrile]",89 to 93 °C
7,"Cn1nc(-c2nc(C#N)c(C#N)nc2-c2ccccc2)ccc1=O [Example 15, 5-(1-Methyl-6-oxo-1,6-dihydro-3-pyridazinyl)-6-phenyl-2,3-pyrazinedicarbonitrile]",210 to 212 °C
8,"Cn1nc(-c2nc(C#Cc3ccccc3)c(N)nc2-c2ccccc2)ccc1=O [Example 77, 6-[5-amino-3-phenyl-6-(phenylethynyl)-2-pyrazinyl]-2-methyl-3(2H)-pyridazinone]",234 to 236 °C
9,"CC(C)n1nc(-c2nc(N)c(C#N)nc2-c2ccccc2Br)ccc1=O [Example 197, 3-amino-6-(2-bromophenyl)-5-(1-isopropyl-6-oxo-1,6-dihydro-3-pyridazinyl)-2-pyrazinecarbonitrile]",241 to 243 °C
10,"CCCCOc1nc(-c2ccc(=O)n(C(C)C)n2)c(-c2ccccc2)nc1N [Example 165, 6-(5-amino-6-butoxy-3-phenyl-2-pyrazinyl)-2-isopropyl-3(2H)-pyridazinone]",130 to 131.5 °C
11,"CSc1nc(-c2ccc(=O)n(C(C)C)n2)c(-c2ccccc2)nc1N [Example 54, 6-[5-amino-6-(methylthio)-3-phenyl-2-pyrazinyl]-2-isopropyl-3(2H)-pyridazinone]",211 to 214 °C
12,"CC(C)n1nc(-c2ncc(N)nc2-c2ccccc2Br)ccc1=O [Example 199, 6-[5-amino-3-(2-bromophenyl)-2-pyrazinyl]-2-isopropyl-3(2H)-pyridazinone]",189 to 191 °C
13,"CC(C)n1nc(-c2nc(-c3cccs3)c(N)nc2-c2ccccc2)ccc1=O [Example 80, 6-[5-amino-3-phenyl-6-(2-thienyl)-2-pyrazinyl]-2-isopropyl-3(2H)-pyridazinone]",181 to 183 °C
14,"CC(C)n1nc(-c2nc(-c3ccncc3)c(N)nc2-c2ccccc2)ccc1=O [Example 82, 6-[5-amino-3-phenyl-6-(4-pyridyl)-2-pyrazinyl]-2-isopropyl-3(2H)-pyridazinone]",222 to 224 °C
15,"CCn1nc(-c2nc(C#N)c(NCc3ccc(OC)cc3)nc2-c2ccccc2)ccc1=O [Example 12, 6-(1-Ethyl-6-oxo-1,6-dihydro-3-pyridazinyl)-3-[(4-methoxybenzyl)amino]-5-phenyl-2-pyrazinecarbonitrile]",165.5 to 167.5 °C
16,"Cn1nc(-c2nc(C(N)=O)c(N)nc2-c2ccccc2)ccc1=O [Example 18, 3-Amino-6-(1-methyl-6-oxo-1,6-dihydro-3-pyridazinyl)-5-phenyl-2-pyrazinecarboxamide]",> 250 °C
17,"COC1CCN(c2nc(-c3ccc(=O)n(C(C)C)n3)c(-c3ccccc3)nc2N)CC1 [Example 110, 6-[5-amino-6-(4-methoxy-1-piperidinyl)-3-phenyl-2-pyrazinyl]-2-isopropyl-3(2H)-pyridazinone]",179 to 181 °C
18,"CCn1nc(-c2nc(C#N)c(C#N)nc2-c2ccccc2)ccc1=O [Example 11, 5-(1-Ethyl-6-oxo-1,6-dihydro-3-pyridazinyl)-6-phenyl-2,3-pyrazinedicarbonitrile]",201 to 203 °C
19,"Cn1nc(-c2nc(-n3cccc3)c(N)nc2-c2ccccc2)ccc1=O [Example 148, 6-[5-amino-3-phenyl-6-(1H-pyrrol-1-yl)-2-pyrazinyl]-2-methyl-3(2H)-pyridazinone]",202 to 205 °C
20,"CCCCNc1nc(-c2ccc(=O)n(C)n2)c(-c2ccccc2)nc1N [Example 100, 6-[5-amino-6-(butylamino)-3-phenyl-2-pyrazinyl]-2-methyl-3(2H)-pyridazinone]",253 to 255 °C

row,SMILES,melting point
1,"Cn1nc(-c2nc(OC3CCN(Cc4ccccc4)CC3)c(N)nc2-c2ccccc2)ccc1=O [Example 185, 6-{5-amino-6-[(1-benzyl-4-piperidinyl)oxy]-3-phenyl-2-pyrazinyl}-2-methyl-3(2H)-pyridazinone]",147 to 149 °C
2,"COc1ccc(N2CCN(c3nc(-c4ccc(=O)n(C(C)C)n4)c(-c4ccccc4)nc3N)CC2)cc1 [Example 116, 6-{5-amino-6-[4-(4-methoxyphenyl)-1-piperazinyl]-3-phenyl-2-pyrazinyl}-2-isopropyl-3(2H)-pyridazinone]",194 to 196 °C
3,"CCn1nc(-c2nc(C(N)=O)c(N)nc2-c2ccccc2)ccc1=O [Example 14, 3-Amino-6-(1-ethyl-6-oxo-1,6-dihydro-3-pyridazinyl)-5-phenyl-2-pyrazinecarboxamide]",> 250 °C
4,"CC(C)n1nc(-c2nc(N)c(C#N)nc2-c2ccccc2)ccc1=O [Example 21, 3-Amino-5-(1-isopropyl-6-oxo-1,6-dihydro-3-pyridazinyl)-6-phenyl-2-pyrazinecarbonitrile]",238 to 241 °C
5,"C#Cc1nc(-c2ccc(=O)n(C(C)C)n2)c(-c2ccccc2)nc1N [Example 76, 6-(5-amino-6-ethynyl-3-phenyl-2-pyrazinyl)-2-isopropyl-3(2H)-pyridazinone]",217 °C (dec.)
6,"Cn1nc(-c2nc(NCCc3ccccc3)c(N)nc2-c2ccccc2)ccc1=O [Example 125, 6-{5-amino-3-phenyl-6-[(2-phenylethyl)amino]-2-pyrazinyl}-2-methyl-3(2H)-pyridazinone]",232 to 234 °C
7,"COc1ccc(CNc2nc(-c3ccccc3)c(-c3ccc(=O)n(C)n3)nc2C#N)cc1 [Example 16, 3-[(4-Methoxybenzyl)amino]-6-(1-methyl-6-oxo-1,6-dihydro-3-pyridazinyl)-5-phenyl-2-pyrazinecarbonitrile]",166.5 to 168 °C
8,"CC(C)n1nc(-c2nc(C#N)c(C(N)=O)nc2-c2ccccc2)ccc1=O [Example 23, 3-Cyano-5-(1-isopropyl-6-oxo-1,6-dihydro-3-pyridazinyl)-6-phenyl-2-pyrazinecarboxamide]",> 250 °C
9,"Cn1nc(-c2nc(-n3cnc4ccccc43)c(N)nc2-c2ccccc2)ccc1=O [Example 156, 6-[5-amino-6-(1H-benzimidazol-1-yl)-3-phenyl-2-pyrazinyl]-2-methyl-3(2H)-pyridazinone]",> 250 °C
10,"Cn1nc(-c2nc(-c3cccs3)c(N)nc2-c2ccccc2)ccc1=O [Example 86, 6-[5-amino-3-phenyl-6-(2-thienyl)-2-pyrazinyl]-2-methyl-3(2H)-pyridazinone]",177 °C (dec.)
11,"CC(C)n1nc(-c2nc(C#CC3(O)CCCCC3)c(N)nc2-c2ccccc2)ccc1=O [Example 73, 6-{5-amino-6-[(1-hydroxycyclohexyl)ethynyl]-3-phenyl-2-pyrazinyl}-2-isopropyl-3(2H)-pyridazinone]",238 to 240 °C
12,"CC(C)n1nc(-c2nc(N3CCCCC3)c(N)nc2-c2ccccc2)ccc1=O [Example 108, 6-[5-amino-3-phenyl-6-(1-piperidinyl)-2-pyrazinyl]-2-isopropyl-3(2H)-pyridazinone]",183 to 185 °C
13,"CC(C)n1nc(-c2nc(O)cnc2-c2ccccc2)ccc1=O [Example 68, 6-(6-hydroxy-3-phenyl-2-pyrazinyl)-2-isopropyl-3(2H)-pyridazinone]",198 to 200 °C
14,"CC(C)n1nc(-c2nc(NCCc3ccccn3)c(N)nc2-c2ccccc2)ccc1=O [Example 106, 6-(5-amino-3-phenyl-6-{[2-(2-pyridyl)ethyl]amino}-2-pyrazinyl)-2-isopropyl-3(2H)-pyridazinone]",204 to 206 °C
15,"CC(C)n1nc(-c2nc(-c3cccnc3)c(N)nc2-c2ccccc2)ccc1=O [Example 84, 6-[5-amino-3-phenyl-6-(3-pyridyl)-2-pyrazinyl]-2-isopropyl-3(2H)-pyridazinone]",224 to 225.5 °C
16,"CC(C)n1nc(-c2nc(N3CCC(NS(C)(=O)=O)CC3)c(N)nc2-c2ccccc2)ccc1=O [Example 111, N-{1-[3-amino-6-(1-isopropyl-6-oxo-1,6-dihydro-3-pyridazinyl)-5-phenyl-2-pyrazinyl]-4-piperidinyl}methanesulfonamide]",220 to 222 °C
17,"Cn1nc(-c2nc(Br)c(N)nc2-c2ccccc2)ccc1=O [Example 60, 6-(5-amino-6-bromo-3-phenyl-2-pyrazinyl)-2-methyl-3(2H)-pyridazinone]",220 to 222 °C
18,"CC(C)n1nc(-c2nc(-c3ccoc3)c(N)nc2-c2ccccc2)ccc1=O [Example 81, 6-[5-amino-6-(3-furyl)-3-phenyl-2-pyrazinyl]-2-isopropyl-3(2H)-pyridazinone]",233 to 235 °C
19,"Cn1nc(-c2nc(OCCCc3ccccc3)c(N)nc2-c2ccccc2)ccc1=O [Example 183, 6-[5-amino-3-phenyl-6-(3-phenylpropoxy)-2-pyrazinyl]-2-methyl-3(2H)-pyridazinone]",91 to 94 °C
